Paper PMC10914731, “Homo-BacPROTAC-induced degradation of ClpC1 as a strategy against drug-resistant mycobacteria” (Nature Communications, 2024)
Converted amounts (≈) assume the structure as drawn. “And” between values parts separate entries of the source, which are not always exact repeats. Equal values may be shown once. Read-outs that look alike come from different tables or passages of the source.

What was measured:
Assay in all cases: microbe, parasite or virus in culture
Type in all cases: cell-based
[1] = tested on: Mtb # 8673
[2] = tested on: Mtb (moxR) FNDR-M1
[3] = tested on: Mtb (katG del) ATCC 35822
[4] = tested on: Mtb # 11291; conditions: for MIC: read-out: MIC Mtb # 11291
[5] = tested on: M. tuberculosis H37Rv (ATCC 27294); conditions: read-out: MIC
[6] = Mycobacterium tuberculosis, mean, n = 2 well replicates
[7] = Mycobacterium tuberculosis, single well replicates

NNC(=O)c1ccncc1 [Isoniazid]
MIC [1, 6]: 467 µM and 64 µg/mL | MIC [1, 7]: 467 µM and 64 µg/mL | MIC ([1]; single well replicates): 466.68 µM (≈ 64 µg/mL) | MIC Mtb # 8673 ([1]; single well replicates): 64 µg/mL (≈ 467 µM) | MIC ([2]; M. tuberculosis FNDR-M1, single well replicates): 0.11 µM (≈ 0.0151 µg/mL) | MIC ([2]; Mycobacterium tuberculosis, M. tuberculosis FNDR-M1, single well replicates): 0.11 µM (≈ 0.0151 µg/mL) | MIC ([2]; Mycobacterium tuberculosis, Mtb (moxR) FNDR-M1, mean ± SD, n = 3 well replicates): 0.1 µM (≈ 0.0137 µg/mL) | MIC ([3]; M. tuberculosis ATCC 35822, single well replicates): >232.22 µM | MIC ([3]; Mycobacterium tuberculosis, ATCC35822, M. tuberculosis ATCC 35822, single well replicates): > 232 µM | MIC ([3]; Mycobacterium tuberculosis, ATCC35822, Mtb (katG del) ATCC 35822, mean ± SD, n = 3 well replicates): > 232 µM | MIC [4, 6]: 3.6 µM and 0.5 µg/mL | MIC [4, 7]: 3.65 µM and 0.5 µg/mL | MIC Mtb # 11291 ([4]; single well replicates): 0.5 µg/mL (≈ 3.65 µM) | MIC ([4]; single well replicates): 3.65 µM (≈ 0.501 µg/mL) | MIC ([5]; M. tuberculosis H37Rv 27294, single well replicates): 0.23 µM (≈ 0.0315 µg/mL) | MIC ([5]; Mycobacterium tuberculosis, M. tuberculosis H37Rv 27294, single well replicates): 0.23 µM (≈ 0.0315 µg/mL) | MIC ([5]; Mycobacterium tuberculosis, Mtb H37Rv, mean ± SD, n = 3 well replicates): 0.2 µM (≈ 0.0274 µg/mL)
